Test results reported in patent US8785486B2, “Imidazo[1,2-A]pyridine derivatives and their use as positive allosteric modulators of mGluR2 receptors” (Janssen Pharmaceuticals, Inc., priority 2007, dated 2014).

Target: T1, human mGluR2 receptor (Homo sapiens, UniProt Q14416)
T1 construct: expressed in transfected cells; host or cells: CHO cells
Assay: [35S]GTPγS binding assay (PAM assay) using membranes from cells transfected with the human mGluR2 receptor
Assay type: biochemical
Settings: membranes of CHO cells with human mGluR2, glutamate at predetermined EC25 concentration, averages of duplicate values of 11-concentration response curves; for EC50: read-out: GTPγS - hR2 PAM pEC50 (converted)
Procedure: The [^35S]GTPγS binding assay is a functional membrane-based assay used to study G-protein coupled receptor (GPCR) function whereby incorporation of a non-hydrolysable form of GTP, [^35S]GTPγS (guanosine 5′-triphosphate, labelled with […] ^35S), is measured.
CHO-cells were cultured to pre-confluence and stimulated with 5 mM butyrate for 24 hours, prior to washing in PBS, and then collection by scraping in homogenisation buffer (50 mM Tris-HCl buffer, pH 7.4, 4° C.). Cell lysates were homogenized briefly (15 s) using an ultra-turrax homogenizer. The homogenate was centrifuged at 23 500×g for 10 minutes and the supernatant discarded. The pellet was resuspended in 5 mM Tris-HCl, pH 7.4 and centrifuged again (30 000×g, 20 min, 4° C.). The final pellet was resuspended in 50 mM HEPES, pH 7.4 and stored at −80° C. in appropriate aliquots before use. Protein concentration was determined by the Bradford method (Bio-Rad, USA) with bovine serum albumin as standard.
Measurement of mGluR2 positive allosteric modulatory activity of test compounds in membranes containing human mGluR2 was performed using frozen membranes that were thawed and briefly homogenised prior to pre-incubation in 96-well microplates (15 μg/assay well, 30 minutes, 30° C.) in assay buffer (50 mM HEPES pH 7.4, 100 mM NaCl, 3 mM MgCl2, 50 μM GDP, 10 μg/ml saponin,) with increasing concentrations of positive allosteric modulator (from 0.3 nM to 50 μM) and either a minimal pre-determined concentration of glutamate (PAM assay), or no added glutamate. […] After addition of [^35S]GTPγS (0.1 nM, f.c.) to achieve a total reaction volume of 200 μl, microplates were shaken briefly and further incubated to allow [^35S]GTPγS incorporation on activation (30 minutes, 30° C.). The reaction was stopped by rapid vacuum filtration over glass-fibre filter plates (Unifilter 96-well GF/B filter plates, Perkin-Elmer, Downers Grove, USA) microplate using a 96-well plate cell harvester (Filtermate, Perkin-Elmer, USA), and then by washing three times with 300 μl of ice-cold wash buffer (Na2PO4.2H2O 10 mM, NaH2PO4.H2O 10 mM, pH=7.4). Filters were then air-dried, and 40 μl of liquid scintillation cocktail (Microscint-O) was added to each well, and membrane-bound [^35S]GTPγS was measured in a 96-well scintillation plate reader (Top-Count, Perkin-Elmer, USA). Non-specific [^35S]GTPγS binding is determined in the presence of cold 10 μM GTP. Each curve was performed at least once using duplicate sample per data point and at 11 concentrations.
The concentration-response curves of representative compounds of the present invention in the presence of added EC25 of mGluR2 agonist glutamate to determine positive allosteric modulation (PAM), were generated using the Prism GraphPad software (Graph Pad Inc, San Diego, USA). The curves were fitted to a four-parameter logistic equation (Y=Bottom+(Top-Bottom)/(1+10^((Log EC50−X)*Hill Slope) allowing determination of EC50 values. The EC50 is the concentration of a compound that causes a half-maximal potentiation of the glutamate response. This is calculated by subtracting the maximal responses of glutamate in presence of a fully saturating concentration of a positive allosteric modulator from the response of glutamate in absence of a positive allosteric modulator. The concentration producing the half-maximal effect is then calculated as EC50

T1 sequence (Q14416 19-872): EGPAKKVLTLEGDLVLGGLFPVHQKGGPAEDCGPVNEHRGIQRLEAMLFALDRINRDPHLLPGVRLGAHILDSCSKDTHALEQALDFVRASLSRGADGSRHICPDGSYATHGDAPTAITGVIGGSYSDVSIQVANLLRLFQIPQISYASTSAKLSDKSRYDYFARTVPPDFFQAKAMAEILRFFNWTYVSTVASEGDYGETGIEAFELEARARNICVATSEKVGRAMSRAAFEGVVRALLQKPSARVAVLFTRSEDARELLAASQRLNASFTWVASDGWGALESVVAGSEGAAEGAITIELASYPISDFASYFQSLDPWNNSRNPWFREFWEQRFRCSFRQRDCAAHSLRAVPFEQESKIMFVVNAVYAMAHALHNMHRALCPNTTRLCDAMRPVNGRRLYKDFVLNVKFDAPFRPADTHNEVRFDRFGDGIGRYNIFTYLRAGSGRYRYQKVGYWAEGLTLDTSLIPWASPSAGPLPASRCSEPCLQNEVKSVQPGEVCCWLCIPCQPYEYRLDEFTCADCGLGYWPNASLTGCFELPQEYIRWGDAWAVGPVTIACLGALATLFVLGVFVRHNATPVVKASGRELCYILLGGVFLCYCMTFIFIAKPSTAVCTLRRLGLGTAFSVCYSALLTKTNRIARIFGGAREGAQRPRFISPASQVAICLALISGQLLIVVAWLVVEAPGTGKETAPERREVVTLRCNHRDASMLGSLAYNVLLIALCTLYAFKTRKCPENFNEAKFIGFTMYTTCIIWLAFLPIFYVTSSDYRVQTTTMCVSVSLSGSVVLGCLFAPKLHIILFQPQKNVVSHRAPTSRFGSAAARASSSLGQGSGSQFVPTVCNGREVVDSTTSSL

Row | EC50 [nM] | GTPγS - hR2 PAM pEC50 | Structure (SMILES)
1 | 513 |  | N#Cc1c(CN2CCC(c3ccccc3)CC2)ccn2c(-c3ccccc3)cnc12 [Example 1, 3-Phenyl-7-(4-phenyl-piperidin-1-ylmethyl)-imidazo[1,2-a]pyridine-8-carbonitrile]
2 | 123 |  | N#Cc1c(N2CCC(c3ccccc3)CC2)ccn2c(CC(F)(F)F)cnc12 [Example 3, 7-(4-Phenyl-piperidin-1-yl)-3-(2,2,2-trifluoro-ethyl)-imidazo[1,2-a]pyridine-8-carbonitrile]
3 | 692 |  | Cc1cc(Oc2ccc(-c3ccn4c(CC(F)(F)F)cnc4c3C#N)c(F)c2)ccn1 [Example 4, 7-[2-Fluoro-4-(2-methyl-pyridin-4-yloxy)-phenyl]-3-(2,2,2-trifluoro-ethyl)-imidazo[1,2-a]pyridine-8-carbonitrile]
4 | 178 |  | N#Cc1c(N2CCC(c3ccccc3)CC2)ccn2c(Cc3ccccc3)cnc12 [Example 7]
5 | 398 |  | N#Cc1c(N2CCC(c3ccccc3)CC2)ccn2c(-c3ccccc3)cnc12 [Example 10]
6 | 589 |  | Cc1cc(Oc2ccc(-c3ccn4c(CC(F)(F)F)cnc4c3C#N)cc2)ccn1 [Example 13]
7 | 1120 |  | Cc1cc(Oc2ccc(-c3ccn4c(CC(F)(F)F)cnc4c3C#N)cc2F)ccn1 [Example 17]
8 | 1320 |  | CCc1cnc2c(C#N)c(-c3ccc(Oc4ccnc(C)c4)cc3)ccn12 [Example 18]
9 | 295 |  | N#Cc1c(CN2CCC(c3ccccc3)CC2)ccn2c(CC(F)(F)F)cnc12 [Example 27]
10 | 776 |  | N#Cc1c(N2CCC(c3ccccc3)CC2)ccn2c(C(F)(F)F)cnc12 [Example 29, 7-(4-Phenyl-piperidin-1-yl)-3-trifluoromethyl-imidazo[1,2-a]pyridine-8-carbonitrile]
11 | 1380 |  | N#Cc1c(CN2CCN(c3ccc(F)cc3F)CC2)ccn2c(CC(F)(F)F)cnc12 [Example 39]
12 | 562 |  | FC(F)(F)Cc1cnc2c(Cl)c(CN3CCC(c4ccccc4)CC3)ccn12 [Example 42]
13 | 676 |  | N#Cc1c(N2CCC(c3ccccc3)CC2)ccn2c(C3CC3)cnc12 [Example 49]
14 | 275 |  | N#Cc1c(N2CCN(c3ccc(F)cc3F)CC2)ccn2c(CC(F)(F)F)cnc12 [Example 52]
15 | 1350 |  | Cc1cccnc1N1CCN(c2ccn3c(CC(F)(F)F)cnc3c2C#N)CC1 [Example 53]
16 |  | 5.96 | N#Cc1c(N2CCN(c3ncccn3)CC2)ccn2c(CCC3CC3)cnc12 [Example 55]
17 | 646 |  | Cc1cnc(N2CCN(c3ccn4c(CC(F)(F)F)cnc4c3C#N)CC2)nc1 [Example 56]
18 | 479 |  | N#Cc1c(N2CCC(c3ccc(N4CCOCC4)cc3)CC2)ccn2c(CC(F)(F)F)cnc12 [Example 57]
19 | 372 |  | CC(O)c1ccc(C2CCN(c3ccn4c(CC(F)(F)F)cnc4c3C#N)CC2)cc1 (centres unmarked) [Example 59]
20 | 525 |  | Cc1ccnc(N2CCN(c3ccn4c(CC(F)(F)F)cnc4c3C#N)CC2)n1 [Example 60]
21 | 37.2 |  | COc1c(F)cccc1C1CCN(c2ccn3c(CC(F)(F)F)cnc3c2C#N)CC1 [Example 61, 7-[4-(3-Fluoro-2-methoxy-phenyl)-piperidin-1-yl]-3-(2,2,2-trifluoro-ethyl)-imidazo[1,2-a]pyridine-8-carbonitrile]
22 | 9.77 |  | COc1cccc(F)c1C1CCN(c2ccn3c(CC(F)(F)F)cnc3c2C#N)CC1 [Example 69]
23 | 269 |  | Fc1ccc(Oc2ccc(-c3ccn4c(CC(F)(F)F)cnc4c3Cl)cc2)cc1 [Example 70]
24 | 214 |  | N#Cc1c(-c2ccc(C(F)(F)c3ccccc3)cc2)ccn2c(CC(F)(F)F)cnc12 [Example 72]
25 | 269 |  | N#Cc1c(-c2ccc(Oc3ccccc3)c(F)c2)ccn2c(CC(F)(F)F)cnc12 [Example 76]

Row | EC50 [nM] | GTPγS - hR2 PAM pEC50 | Structure (SMILES)
26 | 676 |  | N#Cc1c(-c2ccc(Oc3ccc(C(=O)O)cc3)cc2)ccn2c(CC(F)(F)F)cnc12 [Example 83]
27 | 302 |  | N#Cc1c(-c2ccc(OC3CCCC3)c(Cl)c2)ccn2c(CC(F)(F)F)cnc12 [Example 84]
28 | 3160 |  | CC(C)(O)COc1ccc(-c2ccn3c(CC(F)(F)F)cnc3c2C#N)cc1Cl [Example 86]
29 | 309 |  | CC(C)Oc1ccc(-c2ccn3c(CC(F)(F)F)cnc3c2C#N)cc1Cl [Example 87]
30 |  | 6.35 | CC(C)(C)c1ccc(-c2ccn3c(CC(F)(F)F)cnc3c2C#N)cc1 [Example 88]
31 | 676 |  | N#Cc1c(-c2ccc(OC3CCOCC3)c(Cl)c2)ccn2c(CC(F)(F)F)cnc12 [Example 90]
32 | 186 |  | N#Cc1c(-c2ccc(N[C@H]3CC[C@@H](O)CC3)c(Cl)c2)ccn2c(CC(F)(F)F)cnc12 [Example 95, (cis)-7-[3-Chloro-4-(4-hydroxy-cyclohexylamino)-phenyl]-3-(2,2,2-trifluoro-ethyl)-imidazo[1,2-a]pyridine-8-carbonitrile]
33 | 603 |  | C[C@]1(O)CC[C@H](Oc2ccc(-c3ccn4c(CC(F)(F)F)cnc4c3C#N)cc2Cl)CC1 [Example 97]
34 | 490 |  | CC1(O)CCC(Nc2ccc(-c3ccn4c(CC(F)(F)F)cnc4c3Cl)cc2Cl)CC1 (centres unmarked) [Example 98, 4-{2-Chloro-4-[8-chloro-3-(2,2,2-trifluoro-ethyl)-imidazo[1,2-a]pyridin-7-yl]-phenylamino}-1-methyl-cyclohexanol]
35 | 851 |  | N#Cc1c(-c2ccc(O[C@H]3CC[C@H](O)CC3)c(Cl)c2)ccn2c(CC(F)(F)F)cnc12 [Example 102]
36 | 1050 |  | C[C@]1(O)CC[C@@H](Oc2ccc(-c3ccn4c(CC(F)(F)F)cnc4c3C#N)cc2Cl)CC1 [Example 104]
37 |  | 6.85 | N#Cc1c(-c2ccc(NC3CC3)c(Cl)c2)ccn2c(CC(F)(F)F)cnc12 [Example 105, 7-(3-Chloro-4-cyclopropylamino-phenyl)-3-(2,2,2-trifluoro-ethyl)-imidazo[1,2-a]pyridine-8-carbonitrile]
38 | 6310 |  | N#Cc1c(-c2ccc(NC3CC3)c(F)c2)ccn2c(CC(F)(F)F)cnc12 [Example 106]
39 |  | 6.63 | N#Cc1c(-c2ccc(N3CCCCC3)cc2)ccn2c(CC(F)(F)F)cnc12 [Example 107]
40 | 457 |  | N#Cc1c(-c2ccc(N3CCCC3)c(Cl)c2)ccn2c(CC(F)(F)F)cnc12 [Example 108]
41 | 275 |  | FC(F)(F)Cc1cnc2c(Cl)c(-c3ccc(N4CCCCC4)cc3)ccn12 [Example 109]
42 |  | 5.67 | N#Cc1c(-c2ccc(N3CCOCC3)c(Cl)c2)ccn2c(CC(F)(F)F)cnc12 [Example 110]
43 | 1050 |  | N#Cc1c(-c2ccc(N3CCC(O)CC3)cc2)ccn2c(CC(F)(F)F)cnc12 [Example 111]
44 | 155 |  | N#Cc1c(-c2ccc(COc3ccccc3F)cc2)ccn2c(CC(F)(F)F)cnc12 [Example 113]
45 | 692 |  | N#Cc1c(N2CCc3c([nH]c4ccccc34)C2)ccn2c(CC(F)(F)F)cnc12 [Example 117]
46 | 63.1 |  | N#Cc1c(N2CCC(c3ccccc3CCF)CC2)ccn2c(CC(F)(F)F)cnc12 [Example 118]
47 | 57.5 |  | N#Cc1c(N2CCC(c3cccc(F)c3OCCF)CC2)ccn2c(CC(F)(F)F)cnc12 [Example 119]
48 |  | 6.80 | N#Cc1c(-c2ccc(OCc3ccccc3)cc2)ccn2c(CC(F)(F)F)cnc12 [Example 120]
49 | 2090 |  | N#Cc1c(N2CCC(c3ccccc3)(N3CCOCC3)CC2)ccn2c(CC(F)(F)F)cnc12 [Example 121]
50 | 550 |  | N#Cc1c(N2CCC([C@H]3CC[C@H](O)CC3)CC2)ccn2c(CC(F)(F)F)cnc12 [Example 122]
